Our source for the ERβ antagonism values is patent publication US6756375B2, “10-Aryl-11h-benzo[b]fluorene derivatives and analogs for medicinal use” (Akzo Nobel N.V., priority 2000, dated 2004).

Sequence of human estrogen receptor β (hERβ) (Q92731 whole entry): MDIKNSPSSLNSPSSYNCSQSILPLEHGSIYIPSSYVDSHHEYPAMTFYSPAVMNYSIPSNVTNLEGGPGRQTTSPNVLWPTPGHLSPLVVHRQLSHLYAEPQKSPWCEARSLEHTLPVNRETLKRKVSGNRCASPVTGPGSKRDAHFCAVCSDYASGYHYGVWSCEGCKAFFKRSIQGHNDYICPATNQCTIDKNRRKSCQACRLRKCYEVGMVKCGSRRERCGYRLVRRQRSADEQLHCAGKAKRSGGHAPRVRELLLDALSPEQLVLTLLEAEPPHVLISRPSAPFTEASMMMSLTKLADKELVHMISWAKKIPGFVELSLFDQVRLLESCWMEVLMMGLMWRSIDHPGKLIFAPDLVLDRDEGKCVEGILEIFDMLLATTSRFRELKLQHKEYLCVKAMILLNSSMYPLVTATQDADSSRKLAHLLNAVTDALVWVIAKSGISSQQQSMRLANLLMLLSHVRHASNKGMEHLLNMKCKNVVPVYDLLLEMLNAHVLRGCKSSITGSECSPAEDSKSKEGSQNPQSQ

The experiment has as its target human estrogen receptor β (hERβ) (Homo sapiens, UniProt Q92731). The experiment in a line: Antiestrogenic activity in the in vitro bioassay: recombinant CHO cells co-transfected with hERβ, rat oxytocin promoter and luciferase reporter gene. It counts as cell-based. The following applies: potency ratio relative to standard ICI 164.384; inhibition of estradiol-induced luciferase transactivation via hERβ in CHO cells. How it is done:
The estrogenic and antiestrogenic activity of compounds is determined in an in vitro bioassay with recombinant Chinese hamster ovary (CHO) cells stably co-transfected with the human estrogen receptor α (hERα) or β receptor (hERβ), the rat oxytocin promoter (RO) and the luciferase reporter gene (LUC). The estrogenic activity (potency ratio) of a test compound to stimulate the transactivation of the enzyme luciferase mediated via the estrogen receptors hERα or hERβ is compared with the standard estrogen estradiol. The antiestrogenic activity (potency ratio) of a test compound to inhibit the transactivation of the enzyme luciferase mediated via the estrogen receptors hERα or hERβ by the estrogen estradiol is compared with the standard ICI 164.384 (=(7α,17β)-N-butyl-3,17-dihydroxy-N-methylestra-1,3,5(10)-triene-7-undecanamide).
For orientation: A reporter such as luciferase makes a cellular process visible.
For `Oc1ccc2c(c1)Cc1c-2cc2ccc(O)cc2c1-c1ccc(Cl)cc1` [Compound 5a], the ERβ antagonism result is recorded as “+ (5 > 5% (relative to ICI): +)”. As for `Oc1ccc2c(c1)Cc1c-2cc2ccc(O)cc2c1-c1ccc2ccccc2c1` [Compound 5b], the ERβ antagonism entry is on record as “+ (5 > 5% (relative to ICI): +)”. Consider `COc1cccc(-c2c3c(cc4ccc(O)cc24)-c2ccc(O)cc2C3)c1` [Compound 5c], for which the ERβ antagonism entry is “+ (5 > 5% (relative to ICI): +)”.

Consider `Oc1ccc2c(c1)Cc1c-2cc2ccc(O)cc2c1-c1cccc(C(F)(F)F)c1` [Compound 5d], for which the ERβ antagonism result is on record as “+ (5 > 5% (relative to ICI): +)”. As for `Cc1ccc(-c2c3c(cc4ccc(O)cc24)-c2ccc(O)cc2C3)cc1` [Compound 5e], the ERβ antagonism result was “++ (> 40%: ++)”.

For `Oc1ccc2c(c1)Cc1c-2cc2ccc(O)cc2c1-c1ccc(F)c(Cl)c1` [Compound 5f], the ERβ antagonism result is recorded as “+ (5 > 5% (relative to ICI): +)”.

For the compound `Oc1ccc2c(c1)Cc1c-2cc2ccc(O)cc2c1-c1ccc2c(c1)OCO2` [Compound 5g], the ERβ antagonism entry is listed as “+ (5 > 5% (relative to ICI): +)”. On to `Oc1ccc2c(c1)Cc1c-2cc2ccc(O)cc2c1-c1ccc(-c2ccccc2)cc1` [Compound 5h], for which the ERβ antagonism entry was “+ (5 > 5% (relative to ICI): +)”. The value for `Oc1ccc2c(c1)Cc1c-2cc2ccc(O)cc2c1-c1cccc(F)c1` [Compound 5j] was “+ (5 > 5% (relative to ICI): +)”. `COc1ccc(-c2c3c(cc4ccc(O)cc24)-c2ccc(O)cc2C3)cc1` [Compound 5k]: the ERβ antagonism result is given as “+ (5 > 5% (relative to ICI): +)”. Turning to `Oc1ccc2c(c1)Cc1c-2cc2ccc(O)cc2c1-c1ccc(F)cc1` [Compound 5l], the ERβ antagonism result is “++ (> 40%: ++)”. The value for `Oc1ccc2c(c1)Cc1c-2cc2ccc(O)cc2c1-c1ccc(Cl)c(Cl)c1` [Compound 5m] was “++ (> 40%: ++)”. The value for `Oc1ccc2c(c1)Cc1c-2cc2ccc(O)cc2c1-c1cccc(Cl)c1` [Compound 5n] was “+ (5 > 5% (relative to ICI): +)”. With `Oc1ccc2c(c1)Cc1c-2cc2ccc(O)cc2c1-c1ccc(C(F)(F)F)cc1` [Compound 5o], the ERβ antagonism entry was “+ (5 > 5% (relative to ICI): +)”. The value for `Cc1cccc(-c2c3c(cc4ccc(O)cc24)-c2ccc(O)cc2C3)c1` [Compound 5p] was “+ (5 > 5% (relative to ICI): +)”; that for `CC(C)c1cccc(-c2c3c(cc4ccc(O)cc24)-c2ccc(O)cc2C3)c1` [Compound 5q] was “+ (5 > 5% (relative to ICI): +)”. The value for `Oc1ccc2c(c1)Cc1c-2cc2ccc(O)cc2c1-c1ccc(OC(F)(F)F)cc1` [Compound 5r] was “++ (> 40%: ++)”; that for `Oc1ccc2c(c1)Cc1c-2cc2ccc(O)cc2c1-c1ccc(-c2ccccc2)c(F)c1` [Compound 5s] was “+ (5 > 5% (relative to ICI): +)”; that for `Oc1ccc2c(c1)Cc1c-2cc2ccc(O)cc2c1-c1ccccc1C(F)(F)F` [Compound 5u] was “++ (> 40%: ++)”. As for `Oc1ccc2c(c1)Cc1c-2cc2ccc(O)cc2c1-c1ccccc1` [Compound 5v], the ERβ antagonism entry is “+ (5 > 5% (relative to ICI): +)”. As for `Oc1ccc2c(c1)Cc1c-2cc2ccc(O)cc2c1-c1ccc(OCCN2CCCCC2)cc1` [Compound 9], the ERβ antagonism result is given as “++ (> 40%: ++)”.
